The values that follow come from US10633366B2, “Antibacterial compounds” (AZIENDE CHIMICHE RIUNITE ANGELINI FRANCESCO A.C.R.A.F. …, priority 2016, dated 2020).

Common to all, as to assay: biochemical
The target in assay [1] is S. aureus DNA gyrase (Staphylococcus aureus, UniProt P0A0K8+P20831). The note with it: for IC50: IC50 DNA gyrase; for inhibition at 50 µM: read-out: % inhibition DNA gyrase.
The target in assay [2] is S. aureus Topoisomerase IV (Staphylococcus aureus, UniProt P0C1S7+P0C1U9). The note with it: for inhibition at 50 µM: compound conc. 50 μM, percent of inhibition versus positive control, n/a = not active, read-out: % inhibition Topo IV.
For assay [3], the target named is E. coli Topoisomerase IV (Escherichia coli, UniProt P0AFI2+P20083). The note with it: for IC50: IC50 Topo IV; for inhibition at 50 µM: read-out: % inhibition Topo IV.
The target in assay [4] is E. coli DNA gyrase (Escherichia coli, UniProt P0AES4+P0AES6). The note with it: for IC50: IC50 DNA gyrase; for inhibition at 50 µM: read-out: % inhibition DNA gyrase.

Read-outs that look alike come from different tables or passages of the source.

E. coli Topoisomerase IV, sequence (P0AFI2 whole entry): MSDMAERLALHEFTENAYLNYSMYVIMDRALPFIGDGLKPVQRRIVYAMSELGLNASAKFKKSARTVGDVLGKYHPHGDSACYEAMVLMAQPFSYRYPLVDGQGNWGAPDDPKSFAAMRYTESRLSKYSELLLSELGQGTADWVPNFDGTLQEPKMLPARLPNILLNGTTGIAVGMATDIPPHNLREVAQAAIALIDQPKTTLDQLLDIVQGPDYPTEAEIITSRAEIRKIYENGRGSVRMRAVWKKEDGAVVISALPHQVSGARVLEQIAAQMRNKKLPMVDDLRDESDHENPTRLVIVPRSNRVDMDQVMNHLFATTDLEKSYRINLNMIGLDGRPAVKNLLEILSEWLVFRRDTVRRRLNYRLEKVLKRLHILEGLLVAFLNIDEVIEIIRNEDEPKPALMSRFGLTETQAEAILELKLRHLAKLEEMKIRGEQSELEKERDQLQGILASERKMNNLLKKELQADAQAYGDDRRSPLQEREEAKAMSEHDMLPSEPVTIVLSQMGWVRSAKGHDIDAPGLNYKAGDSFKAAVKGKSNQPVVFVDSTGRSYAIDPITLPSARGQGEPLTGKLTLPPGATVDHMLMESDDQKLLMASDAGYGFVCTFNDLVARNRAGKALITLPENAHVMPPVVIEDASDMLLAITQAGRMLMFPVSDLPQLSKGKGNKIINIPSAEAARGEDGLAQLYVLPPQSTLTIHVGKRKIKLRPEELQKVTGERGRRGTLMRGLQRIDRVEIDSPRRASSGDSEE
E. coli Topoisomerase IV, sequence (P20083 whole entry): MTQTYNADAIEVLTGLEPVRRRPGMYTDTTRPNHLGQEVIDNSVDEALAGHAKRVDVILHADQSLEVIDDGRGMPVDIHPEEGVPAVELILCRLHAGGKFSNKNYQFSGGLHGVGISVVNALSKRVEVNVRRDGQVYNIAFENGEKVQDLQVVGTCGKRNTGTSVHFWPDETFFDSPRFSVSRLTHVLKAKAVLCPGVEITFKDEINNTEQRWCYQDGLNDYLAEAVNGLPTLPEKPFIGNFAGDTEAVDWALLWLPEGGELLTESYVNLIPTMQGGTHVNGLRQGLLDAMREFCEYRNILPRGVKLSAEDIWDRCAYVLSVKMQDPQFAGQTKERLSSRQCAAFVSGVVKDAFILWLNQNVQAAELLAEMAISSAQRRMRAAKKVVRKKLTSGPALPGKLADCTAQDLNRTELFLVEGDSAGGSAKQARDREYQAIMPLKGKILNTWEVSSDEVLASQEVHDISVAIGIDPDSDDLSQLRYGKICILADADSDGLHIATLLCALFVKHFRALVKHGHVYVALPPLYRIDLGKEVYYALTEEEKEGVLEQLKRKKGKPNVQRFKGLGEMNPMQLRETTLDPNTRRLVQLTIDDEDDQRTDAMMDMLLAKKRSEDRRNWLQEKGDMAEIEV
S. aureus DNA gyrase, sequence (P0A0K8 whole entry): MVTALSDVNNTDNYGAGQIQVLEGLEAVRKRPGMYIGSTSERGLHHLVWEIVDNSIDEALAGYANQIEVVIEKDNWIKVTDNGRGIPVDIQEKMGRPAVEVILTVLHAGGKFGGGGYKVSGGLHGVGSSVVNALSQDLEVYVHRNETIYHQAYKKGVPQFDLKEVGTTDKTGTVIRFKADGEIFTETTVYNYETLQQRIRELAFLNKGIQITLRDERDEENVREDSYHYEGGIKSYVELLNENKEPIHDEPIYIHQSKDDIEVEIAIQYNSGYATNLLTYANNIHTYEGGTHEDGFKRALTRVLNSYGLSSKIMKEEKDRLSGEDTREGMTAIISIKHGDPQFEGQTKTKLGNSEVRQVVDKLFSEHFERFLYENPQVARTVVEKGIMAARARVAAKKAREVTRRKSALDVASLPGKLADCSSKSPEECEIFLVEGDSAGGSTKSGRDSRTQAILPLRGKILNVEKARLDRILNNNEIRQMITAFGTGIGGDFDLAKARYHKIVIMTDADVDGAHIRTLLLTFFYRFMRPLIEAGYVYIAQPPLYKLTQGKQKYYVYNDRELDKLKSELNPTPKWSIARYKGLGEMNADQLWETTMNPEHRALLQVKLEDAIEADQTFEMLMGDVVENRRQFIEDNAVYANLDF
S. aureus DNA gyrase, sequence (P20831 whole entry): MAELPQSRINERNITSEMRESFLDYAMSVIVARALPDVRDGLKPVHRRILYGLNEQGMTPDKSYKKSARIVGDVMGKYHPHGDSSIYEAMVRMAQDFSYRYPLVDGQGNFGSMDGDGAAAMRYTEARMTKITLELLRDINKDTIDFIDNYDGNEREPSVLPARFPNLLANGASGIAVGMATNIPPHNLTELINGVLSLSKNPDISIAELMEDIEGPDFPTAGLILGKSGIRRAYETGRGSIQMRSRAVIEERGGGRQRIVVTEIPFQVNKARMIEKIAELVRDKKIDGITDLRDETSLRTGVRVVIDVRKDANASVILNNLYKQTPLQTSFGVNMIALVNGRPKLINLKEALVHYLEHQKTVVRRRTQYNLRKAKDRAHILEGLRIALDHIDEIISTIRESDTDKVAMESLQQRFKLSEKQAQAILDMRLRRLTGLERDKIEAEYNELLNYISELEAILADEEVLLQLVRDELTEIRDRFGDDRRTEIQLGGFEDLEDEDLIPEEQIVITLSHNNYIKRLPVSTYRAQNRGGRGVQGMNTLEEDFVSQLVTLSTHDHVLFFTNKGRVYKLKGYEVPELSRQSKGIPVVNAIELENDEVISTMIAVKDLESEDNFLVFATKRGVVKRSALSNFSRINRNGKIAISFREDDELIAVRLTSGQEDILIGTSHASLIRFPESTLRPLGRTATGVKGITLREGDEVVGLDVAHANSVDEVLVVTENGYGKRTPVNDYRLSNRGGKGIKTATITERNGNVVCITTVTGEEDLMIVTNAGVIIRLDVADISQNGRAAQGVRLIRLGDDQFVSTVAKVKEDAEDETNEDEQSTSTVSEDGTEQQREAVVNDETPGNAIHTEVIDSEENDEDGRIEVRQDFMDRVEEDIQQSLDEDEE
E. coli DNA gyrase, sequence (P0AES4 whole entry, one chain of several): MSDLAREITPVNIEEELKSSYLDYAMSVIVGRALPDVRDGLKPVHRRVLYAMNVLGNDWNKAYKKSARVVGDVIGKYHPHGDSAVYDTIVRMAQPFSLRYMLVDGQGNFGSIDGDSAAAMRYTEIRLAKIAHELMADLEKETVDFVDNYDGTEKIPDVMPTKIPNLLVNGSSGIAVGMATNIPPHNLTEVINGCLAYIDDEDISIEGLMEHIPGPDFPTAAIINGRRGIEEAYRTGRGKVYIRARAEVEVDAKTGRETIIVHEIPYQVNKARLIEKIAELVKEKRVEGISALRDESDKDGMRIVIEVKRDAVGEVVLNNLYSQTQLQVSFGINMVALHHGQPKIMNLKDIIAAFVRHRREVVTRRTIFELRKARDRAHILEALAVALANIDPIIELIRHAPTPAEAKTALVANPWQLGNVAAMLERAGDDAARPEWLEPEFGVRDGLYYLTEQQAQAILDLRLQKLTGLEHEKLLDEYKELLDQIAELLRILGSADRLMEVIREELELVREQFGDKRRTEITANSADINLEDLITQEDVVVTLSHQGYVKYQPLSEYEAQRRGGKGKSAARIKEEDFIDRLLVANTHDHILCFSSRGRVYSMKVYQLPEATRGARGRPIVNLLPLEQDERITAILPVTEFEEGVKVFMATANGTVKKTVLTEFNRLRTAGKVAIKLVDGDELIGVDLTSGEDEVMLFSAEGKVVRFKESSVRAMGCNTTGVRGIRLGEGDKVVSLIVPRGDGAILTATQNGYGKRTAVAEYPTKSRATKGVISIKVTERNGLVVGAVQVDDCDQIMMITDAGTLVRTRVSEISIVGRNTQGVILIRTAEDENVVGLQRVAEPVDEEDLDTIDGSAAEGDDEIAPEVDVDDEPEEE

For `COc1ccc2ccc(=O)n([C@H]3CC[C@H](NCc4cc5c(=O)oc6ccc(F)cc6c5[nH]4)CC3)c2c1` [Compound 219, 8-fluoro-2-({[trans-4-(7-methoxy-2-oxoquinolin-1(2H)-yl)cyclohexyl]amino}methyl)[1]benzopyrano[4,3-b]pyrrol-4(1H)-one], the IC50 (commonly the midpoint of a concentration-inhibition curve) came out at 0.22 µM in assay [1], 0.65 µM in assay [2] (IC50 Topo IV), 0.22 µM in assay [3] and 0.22 µM in assay [4]. For the same molecule, the inhibition at 50 µM in assay [1], in assay [2] (S. aureus), in assay [3] and in assay [4] was 100% each time.

Take `O=C1COc2ncc(F)cc2N1[C@H]1CC[C@](CO)(NCc2cc3c(=O)oc4ccc(F)cc4c3[nH]2)CC1` [Compound 220, 8-fluoro-2-({[trans-4-(7-fluoro-2-oxo-2,3-dihydro-1H-pyrido[2,3-b][1,4]oxazin-1-yl)-1-(hydroxymethyl)cyclohexyl]amino}methyl)[1]benzopyrano[4,3-b]pyrrol-4(1H)-one]: the IC50 was found to be 1.97 µM in assay [1], 2.91 µM in assay [2] (IC50 Topo IV), 0.74 µM in assay [3] and 0.68 µM in assay [4]. Further, the inhibition (as a rule, the change of the read-out against control, counted positive when it falls) at 50 µM in assay [1] is 100%; in assay [2] (S. aureus), 100%; in assay [3], 50%; in assay [4], 100%.

`O=C1COc2ncc(F)cc2N1[C@H]1CC[C@H](N(CCO)Cc2cc3c(=O)oc4ccc(F)cc4c3[nH]2)CC1` [Compound 221, 8-fluoro-2-({[trans-4-(7-fluoro-2-oxo-2,3-dihydro-1H-pyrido[2,3-b][1,4]oxazin-1-yl)cyclohexyl](2-hydroxyethyl)amino}methyl)[1]benzopyrano[4,3-b]pyrrol-4(1H)-one]: the IC50 is 2.76 µM in assay [1], 2.63 µM in assay [2] (IC50 Topo IV), 0.67 µM in assay [3] and 0.92 µM in assay [4]. In addition, the inhibition at 50 µM in assay [1] stood at 100%; in assay [2] (S. aureus) it was 100%; in assay [3], 50%; in assay [4], 81%.

In the case of `O=C1COc2ncc(F)cc2N1[C@H]1CC[C@H](NCc2cc3c(=O)oc4cccnc4c3[nH]2)CC1` [Compound 301], the IC50 in assay [1] came out at 0.72 µM; in assay [2] (IC50 Topo IV), 70.3 µM; in assay [3], 0.43 µM; in assay [4] it was 0.46 µM.

As to `COc1cnc2c(c1)N([C@H]1CC[C@H](NCc3cc4c(=O)oc5ccc(F)cc5c4[nH]3)CC1)C(=O)CO2` [Compound 302, 8-fluoro-2-({[trans-4-(7-methoxy-2-oxo-2,3-dihydro-1H-pyrido[2,3-b][1,4]oxazin-1-yl)cyclohexyl]amino}methyl)[1]benzopyrano[4,3-b]pyrrol-4(1H)-one], the IC50 is 0.58 µM in assay [1]; 3.26 µM in assay [2] (S. aureus, Table 4, eight half-log concentrations ranging from 0.1 to 300 μM, read-out: IC50 Topo IV); 0.12 µM in assay [3]; 0.59 µM in assay [4].

In the case of `O=C1COc2ncc(F)cc2N1C1CCN(CC(O)CNc2cc(=O)oc3ccc(F)cc23)CC1` (centres unmarked) [Compound 303, 7-fluoro-1-(1-{3-[(6-fluoro-2-oxo-2H-1-benzopyran-4-yl)amino]-2-hydroxypropyl}piperidin-4-yl)-1H-pyrido[2,3-b][1,4]oxazin-2(3H)-one], the IC50 is 9.92 µM in assay [1], above 100 µM in assay [2] (IC50 Topo IV), 0.62 µM in assay [3] and 2.67 µM in assay [4].

On to `O=C1COc2ncc(F)cc2N1[C@H]1CC[C@H](NCc2cc3ncc4c(c3[nH]2)OCCO4)CC1` [Compound 314, 1-[trans-4-{[(2,3-dihydro-9H-[1,4]dioxino[2,3-d]pyrrolo[3,2-b]pyridin-8-yl)methyl]amino}cyclohexyl]-7-fluoro-1H-pyrido [2,3-b][1,4]oxazin-2(3H)-one], for which the half-maximal inhibitory concentration (IC50) was 7.1 µM in assay [1], above 100 µM in assay [2] (IC50 Topo IV), 1.14 µM in assay [3] and 0.85 µM in assay [4].

On to `O=C1COc2ncc(F)cc2N1[C@H]1CC[C@H](NCCNc2cc(=O)oc3ccc(F)cc23)CC1` [Compound 354, 7-fluoro-1-[trans-4-({2-[(6-fluoro-2-oxo-2H-1-benzopyran-4-yl)amino]ethyl}amino)cyclohexyl]-1H-pyrido[2,3-b][1,4]oxazin-2(3H)-one], for which the 50% inhibitory concentration (IC50) in assay [1] is 0.35 µM; in assay [2] (IC50 Topo IV), 0.92 µM; in assay [3] it was 0.18 µM; in assay [4], 0.47 µM.
